The record followed here is ChEMBL document CHEMBL1201862, “PubChem BioAssay data set” (2004).

Calls of active or inactive are those of the source. Cut-off read from the data, not from the text of the source, for most assays here: actives have a measured EC50 and inactives only a lower limit. Where only a bound is given, the exact number is not on record here.

By AC50 is commonly meant the midpoint of the concentration-response curve, whichever way the signal moves. What is called EC50 is the concentration at which the effect is half-maximal.

Assay [1] addresses FAD-linked sulfhydryl oxidase ALR (Homo sapiens, UniProt P55789). The experiment in a line: inhibitors of human ALR sulfhydryl oxidase, dose response, biochemical, H2O2 detection, luminescence, cherry-pick (AID 493248).
The nature of assay [2]: ZM109 Env clade C HIV-1 fusion inhibitors, dose response, HeLa effector, CEM target cells, luciferase, cherry-pick (AID 652058). Type of assay: functional, cell-based.
The target of assay [3] is T1, RNA-binding protein pos-1 (Caenorhabditis elegans, UniProt G5EF15).
T1 sequence (G5EF15 whole entry): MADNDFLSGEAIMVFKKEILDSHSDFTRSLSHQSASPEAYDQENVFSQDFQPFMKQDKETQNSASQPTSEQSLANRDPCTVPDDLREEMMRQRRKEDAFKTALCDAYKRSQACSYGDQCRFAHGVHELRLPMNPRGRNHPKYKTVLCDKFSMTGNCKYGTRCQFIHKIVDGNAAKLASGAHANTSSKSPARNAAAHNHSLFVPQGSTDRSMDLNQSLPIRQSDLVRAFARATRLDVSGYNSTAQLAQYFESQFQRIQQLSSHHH
Briefly: inhibitors of POS-1/mex-3 RNA binding, dose response, biochemical, fluorescence polarization (AID 1964). (In general: In fluorescence polarisation assays a small probe gives low polarisation when free and higher when bound to something large.)

The target in assay [4] is T2, Zinc finger protein mex-5 (Caenorhabditis elegans, UniProt Q9XUB2).
T2 sequence (Q9XUB2 whole entry): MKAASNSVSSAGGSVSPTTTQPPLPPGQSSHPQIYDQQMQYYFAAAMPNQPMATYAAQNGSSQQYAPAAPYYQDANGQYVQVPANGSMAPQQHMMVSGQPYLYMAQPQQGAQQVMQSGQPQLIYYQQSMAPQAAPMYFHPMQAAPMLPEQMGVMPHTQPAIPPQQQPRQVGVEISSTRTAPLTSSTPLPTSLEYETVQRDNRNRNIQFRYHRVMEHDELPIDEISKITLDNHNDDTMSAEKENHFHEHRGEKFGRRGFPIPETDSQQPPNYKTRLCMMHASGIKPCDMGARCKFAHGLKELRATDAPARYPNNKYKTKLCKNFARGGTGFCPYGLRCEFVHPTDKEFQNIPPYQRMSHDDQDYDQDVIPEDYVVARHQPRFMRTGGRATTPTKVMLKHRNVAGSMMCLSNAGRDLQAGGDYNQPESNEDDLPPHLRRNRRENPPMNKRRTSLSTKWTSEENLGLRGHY
The experiment in a line: MEX-5/TCR-2 RNA interaction inhibitors, dose response, biochemical, C. elegans, fluorescence polarization (AID 1960).

The target of another assay is T3, Protein RecA (Mycobacterium tuberculosis, UniProt P9WHJ3).
T3 sequence (P9WHJ3 whole entry): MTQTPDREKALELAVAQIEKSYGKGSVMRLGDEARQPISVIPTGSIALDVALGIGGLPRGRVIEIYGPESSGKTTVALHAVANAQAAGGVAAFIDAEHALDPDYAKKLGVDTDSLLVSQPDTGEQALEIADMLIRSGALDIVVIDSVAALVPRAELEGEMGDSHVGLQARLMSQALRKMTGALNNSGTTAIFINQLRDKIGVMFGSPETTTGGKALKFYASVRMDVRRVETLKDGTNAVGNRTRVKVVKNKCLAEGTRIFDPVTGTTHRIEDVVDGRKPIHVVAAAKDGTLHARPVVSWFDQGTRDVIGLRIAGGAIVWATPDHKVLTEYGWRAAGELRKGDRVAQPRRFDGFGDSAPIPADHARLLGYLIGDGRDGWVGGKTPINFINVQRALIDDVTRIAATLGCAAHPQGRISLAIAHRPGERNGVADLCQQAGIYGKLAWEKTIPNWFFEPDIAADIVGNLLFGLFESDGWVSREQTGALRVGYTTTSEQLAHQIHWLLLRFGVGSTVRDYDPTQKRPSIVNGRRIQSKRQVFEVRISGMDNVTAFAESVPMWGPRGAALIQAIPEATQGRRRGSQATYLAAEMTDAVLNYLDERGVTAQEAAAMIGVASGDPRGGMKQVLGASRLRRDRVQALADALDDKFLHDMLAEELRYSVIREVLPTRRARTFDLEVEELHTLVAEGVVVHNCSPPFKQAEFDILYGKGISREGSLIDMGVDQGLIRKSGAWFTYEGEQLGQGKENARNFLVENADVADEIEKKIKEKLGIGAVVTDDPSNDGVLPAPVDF
Briefly: Fluorescence Cell-Free Homogeneous Dose Retest to Identify Inhibitors of RecA-Intein Splicing Activity. [Related pubchem assays (depositor defined):AID2097, AID2223, AID489010, AID492950]. Type of assay: functional.

The target in assay [5] is T4, Replicative DNA helicase DnaB (Mycobacterium tuberculosis, UniProt P9WMR3).
T4 sequence (P9WMR3 whole entry): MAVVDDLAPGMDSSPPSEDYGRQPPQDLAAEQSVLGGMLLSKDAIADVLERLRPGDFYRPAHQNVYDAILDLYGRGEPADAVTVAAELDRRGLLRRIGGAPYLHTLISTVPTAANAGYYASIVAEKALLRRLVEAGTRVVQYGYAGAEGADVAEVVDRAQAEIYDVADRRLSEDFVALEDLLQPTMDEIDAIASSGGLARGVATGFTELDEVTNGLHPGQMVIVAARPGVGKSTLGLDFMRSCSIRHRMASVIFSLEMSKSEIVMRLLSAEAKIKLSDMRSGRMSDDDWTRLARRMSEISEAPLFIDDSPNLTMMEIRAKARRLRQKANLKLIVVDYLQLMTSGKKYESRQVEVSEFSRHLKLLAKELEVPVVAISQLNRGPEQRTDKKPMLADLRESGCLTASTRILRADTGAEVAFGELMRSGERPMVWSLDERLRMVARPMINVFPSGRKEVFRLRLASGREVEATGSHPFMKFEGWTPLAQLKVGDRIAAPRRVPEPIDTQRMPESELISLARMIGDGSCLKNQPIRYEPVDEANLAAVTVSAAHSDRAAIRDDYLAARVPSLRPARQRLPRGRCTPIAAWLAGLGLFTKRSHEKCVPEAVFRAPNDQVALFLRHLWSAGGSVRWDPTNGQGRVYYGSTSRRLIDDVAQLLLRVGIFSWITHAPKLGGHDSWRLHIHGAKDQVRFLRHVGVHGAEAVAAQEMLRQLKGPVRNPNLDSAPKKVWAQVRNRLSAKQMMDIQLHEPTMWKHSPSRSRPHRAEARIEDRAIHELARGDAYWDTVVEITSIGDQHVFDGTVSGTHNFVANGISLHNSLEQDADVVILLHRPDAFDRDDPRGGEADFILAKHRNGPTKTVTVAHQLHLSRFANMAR
Briefly: DnaB intein splicing inhibitors, dose response, biochemical, cell-free fluorescence (AID 449749). Type of assay: functional.

Assay [6] in a line: inhibitors of clade B AD8 Env fusion, dose response, cell-based, cherry-pick (AID 652062). It counts as functional.
For assay [7], the system named is Streptococcus sp. 'group A'. Briefly: growth inhibition of control SK(-) GAS strain, dose response, counter-screen for streptokinase expression inhibitor project, luminescence, kanamycin, BacTiterGlo, confirmation (AID 1900). Type of assay: functional, organism-based. On the technique in general: A counterscreen serves to expose hits that act by an unwanted route or on another target.

For another assay, the target named is T5, Streptokinase A (Streptococcus pyogenes serotype M1, UniProt P10520).
T5 sequence (P10520 whole entry): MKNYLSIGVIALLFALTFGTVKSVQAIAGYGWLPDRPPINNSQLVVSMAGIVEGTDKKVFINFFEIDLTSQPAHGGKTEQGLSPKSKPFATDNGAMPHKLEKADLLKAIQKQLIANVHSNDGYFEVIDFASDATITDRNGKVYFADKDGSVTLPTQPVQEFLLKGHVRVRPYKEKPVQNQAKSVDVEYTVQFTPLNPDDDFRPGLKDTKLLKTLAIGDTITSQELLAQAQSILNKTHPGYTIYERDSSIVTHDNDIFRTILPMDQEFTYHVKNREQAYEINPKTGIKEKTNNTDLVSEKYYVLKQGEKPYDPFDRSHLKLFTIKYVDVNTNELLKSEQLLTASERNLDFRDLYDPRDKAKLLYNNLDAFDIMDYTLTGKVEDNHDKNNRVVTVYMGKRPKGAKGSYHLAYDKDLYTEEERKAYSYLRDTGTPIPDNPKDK
The experiment in a line: S. pyogenes streptokinase expression inhibitors, potency, dose response, plasminogen activation absorbance, OD405 (AID 1914). Type of assay: functional, Streptococcus pyogenes M1 GAS.

A further assay deals with Streptococcus. Briefly: Group A Streptococcus viability loss, dose response, counter-screen for streptokinase expression inhibitor project, luminescence, BacTiterGlo (AID 1915). It counts as functional, organism-based.

FAD-linked sulfhydryl oxidase ALR, sequence (P55789 whole entry, the tested form may be a part): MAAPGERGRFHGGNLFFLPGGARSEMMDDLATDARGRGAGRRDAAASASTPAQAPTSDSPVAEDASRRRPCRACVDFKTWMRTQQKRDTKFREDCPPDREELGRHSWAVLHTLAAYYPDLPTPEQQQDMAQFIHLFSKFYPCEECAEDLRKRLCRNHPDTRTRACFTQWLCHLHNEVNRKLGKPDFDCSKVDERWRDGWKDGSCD

On to `COCc1cc(O)n2ncc(-c3ccsc3)c2n1`, for which the AC50 in [1] was 3.5 µM (active). For the compound `CN(C)C(=O)C[C@H]1C[C@@H]2c3cc(NS(=O)(=O)c4ccc(F)cc4)ccc3O[C@@H]2[C@@H](CO)O1`, the half-maximal activity concentration (AC50) in assay [2] was 54.1 µM (active).

With `Nc1scc(-c2ccncc2)c1Cl`, the AC50 in [1] was 1.73 µM (active). For the compound `O=C(N[C@H]1CP(=O)(Oc2ccccc2)O[C@H](COCc2ccccc2)[C@H]1O)C(Cl)(Cl)Cl` (stereo not given in full), the concentration giving a half-maximal response (EC50) in assay [3] and in assay [4] was > 300 µM (not active) throughout. As to `Cc1ccc2nc(O)c(CN(CCO)Cc3nnnn3CCc3ccccc3)cc2c1`, the concentration for a half-maximal effect (EC50) in [3] and in assay [4] was > 300 µM (not active) throughout. Turning to `Cc1ccc(N2C(=O)C(Cl)=C(NCCO)C2=O)c(C)c1`, the EC50 at Protein RecA is 10.8 µM (active). In addition, the AC50 in [5] was 155 µM (active). With `COc1ccccc1C(=O)Nc1ccc2c(c1)nc1n2CCSC1`, the AC50 in assay [1] is 0.076 µM (active). On the same count and under the same terms, under `CCCCCC(=O)N/N=C/c1cc(Br)c(O)c(OC)c1` stands 0.098 µM (active); under `c1ccc(CN2C3=NCCN3c3ccccc32)cc1`, 40.9 µM (active). On to `Nc1ncc(Br)cc1S(=O)(=O)NCCC(=O)N1CCN(c2ccccc2)CC1`, for which, in assay [1], the half-maximal activity concentration (AC50) is 1.56 µM (active). As for `O=C(Nc1cccc(OC(=O)c2ccc(Br)o2)c1)c1ccccc1`, the concentration for a half-maximal effect (EC50) on Protein RecA is 9.2 µM (active). Also, the AC50 in [5] was 0.0485 µM (inconclusive). The like results for `O=[N+]([O-])/C(C(Cl)=C(Cl)Cl)=C(/Sc1ccccc1)N1CCCCC1` were, in that order, 7.05 µM (active) and 3.88 µM (active). As for `CCCc1n[nH]c2c1C(c1ccc(O)c(OC)c1)C(C#N)=C(N)O2` (stereo not given), the concentration for a half-maximal effect (EC50) at Protein RecA is 8.18 µM (active). The AC50 in [5] is 57.1 µM (active). As for `O=C(c1ccccc1)N1CCC(c2nc(-c3ccc(S(=O)(=O)NCC4CCCO4)cc3)no2)CC1` (stereo not given), the AC50 was 11.3 µM (active) in [6] and 24.4 µM (active) in assay [2]. `CC1(S(=O)(=O)O)CC(=O)c2ccccc2C1=O` (stereo not given): on Protein RecA, the EC50 is 3.03 µM (active). Also, the half-maximal activity concentration (AC50) in assay [5] is 5.26 µM (active). As for `O=C(CCl)NCc1c(Cl)cccc1-n1cccc1`, the EC50 on Protein RecA was 15.3 µM (active). For the same compound, in assay [5], the AC50 was > 380 µM (inactive). `COc1ccc(N2CCN(C(=O)Cc3ccc(OC)c(OC)c3)CC2)cc1`: the AC50 in assay [1] was 7.7 µM (active). For the compound `Cc1ccc(CNC(=O)CCN2C(=O)[C@@H]3Cc4ccccc4CN3C2=O)cc1`, the EC50 on Protein RecA was > 380 µM (inactive). In [5], the half-maximal activity concentration (AC50) was 373 µM (active). Taken in the same sequence, the figures for `CCCCC(=O)NC(c1cccc([N+](=O)[O-])c1)c1c(OC(C)=O)ccc2ccccc12` (stereo not given) were 25.4 µM (active) and 41.6 µM (active). Take `CN(C)c1ccc(C(c2nnnn2C(C)(C)C)N2CCN(C(=O)c3ccco3)CC2)cc1` (stereo not given): the concentration at half-maximal activity (AC50) in assay [1] is 3.83 µM (active).

Regarding `Cc1ccc(/C=C2/Sc3ccc(C(=O)N4CCC5(CC4)OCCO5)cc3NC2=O)cc1`, the EC50 was 7.6 µM (active) in assay [7]; 4.37 µM (active) in [3]; 8.06 µM (inconclusive) in assay [4]; > 150 µM (not active) on Streptokinase A; 9.49 µM (active) in the assay on Streptococcus. For `O=C(CNCC1CCCCC1)Nc1ccc(N2CCCCC2)cc1`, in assay [1], the concentration at half-maximal activity (AC50) was 13.4 µM (active). Turning to `CC(C)(C)OC(=O)NCCCC1=CC2=CC(=O)C(C)(OC(=O)c3ccco3)C(=O)C2=CO1` (stereo not given), the EC50 is 46.9 µM (active) in assay [3] and 46.8 µM (active) in assay [4]. The like results for `Cc1ccc(N2C(=O)NC(=O)/C(=C\c3cc(C)n(-c4cc(C(=O)O)cc(C(=O)O)c4)c3C)C2=O)cc1` were, in that order, > 300 µM (not active) and > 300 µM (not active). For the compound `CC1CC(C)CN(C(=O)c2ccc3c(c2)N(Cc2ccccc2)CCS3)C1` (stereo not given), the EC50 at Protein RecA is 23.6 µM (active). For the same compound, the half-maximal activity concentration (AC50) in assay [5] was 5.01 µM (active). For `COC(=O)CCC(=O)OC1(C)C(=O)C2=CN(CCc3ccccn3)C(c3ccc(OC)cc3)=CC2=C(Br)C1=O` (stereo not given), the half-maximal effective concentration (EC50) in assay [3] is 68.5 µM (active); in assay [4] it was 8.83 µM (active).
